Assay results published in patent publication US20250114420A1, “ANTIMICROBIAL NATURAL COMPOSITIONS” (BIO-ACTIVES SYNERGIO LTD, priority 2022, published 2025).

How the values were obtained:
A. brasilliensis (AB) = test: Agar dilution test; format: cell-based, Aspergillus brasiliensis; set-up: key: (+) indicates growth; (+/−) indicates partial growth; (−) indicates no growth; conditions: Table 4, 24-48 hours
Procedure: (§1) An agar dilution test was carried out for various combinations of saponin extract (Sapindus mukorossi) and Styrax extract (Sumatra benzoin), with maltol extracted from wheat as an additional plant extract, for evaluating the synergistic antimicrobial effect therebetween.
(§2) The agar dilution test was carried out as follows: TSA (tryptic soy agar) or SDA (Sabouraud dextrose agar) media were melted at 99±2° C. and kept warm until seeding (43±2° C.). Into a quota of the growth medium, the maltol and extract were added and stirred. 5 ml of the mixture was poured into each test plate and left to cool and solidify. The plates were then inoculated by defined amounts of test microorganisms (E. coli, S. aureus and P. aeruginosa used on TSA plates, C. albicans and A. brasilliensis used on the SDA plates). The plates were incubated at 25-35° C. for 24-48 hours and then assessed for microorganisms' growth.
(§3) The test results for the combinations of saponin and Styrax extracts with maltol are detailed in Table 4, while the results for the compositions of saponin and Styrax extracts with maltol and citric acid are shown in Table 5. (+) indicates growth, (+/−) indicates partial growth, while (−) indicates no growth. Positive control was obtained by utilizing a commercial preservative. […]

E. coli (EC) = test: Agar dilution test; format: cell-based, Escherichia coli; set-up: key: (+) indicates growth; (+/−) indicates partial growth; (−) indicates no growth; conditions: Table 4, 24-48 hours
Procedure: as §1, §2, §3

C. albicans (CA) = test: Agar dilution test; format: cell-based, Candida albicans; set-up: key: (+) indicates growth; (+/−) indicates partial growth; (−) indicates no growth; conditions: Table 4, 24-48 hours
Procedure: as §1, §2, §3

S. aureus (SA) = test: Agar dilution test; format: cell-based, Staphylococcus aureus; set-up: key: (+) indicates growth; (+/−) indicates partial growth; (−) indicates no growth; conditions: Table 4, 24-48 hours
Procedure: as §1, §2, §3

P. aeruginosa (PA) = test: Agar dilution test; format: cell-based, Pseudomonas aeruginosa; set-up: key: (+) indicates growth; (+/−) indicates partial growth; (−) indicates no growth; conditions: Table 4, 24-48 hours
Procedure: as §1, §2, §3

[1] = tested on: mixture of S. aureus, S. capitis, S. epidermis and S. hominis; test: Agar plates of cream samples inoculated with skin microbiota mixture (FIGS. 1A-1D); format: cell-based; conditions: cream sample; after 7 hours of incubation
Procedure: FIGS. […] The upper panel of each agar plate was plated with mixture of representative microorganisms to provide a control to each of the experiments.
The mixture of microorganisms represents the natural skin microbiota. […] In comparison, FIGS. 1C and 1D show samples of the cream with the bottom half of the sample containing the compositions 5A and 5B, respectively, and without preservative in the upper half.

Compound | Agar dilution test result (growth), AB (A. brasilliensis (AB); Teat 2 (duplicate)) | Agar dilution test result (growth), AB (A. brasilliensis (AB); Test 1) | Agar dilution test result (growth), EC (E. coli (EC); Teat 2 (duplicate)) | Agar dilution test result (growth), EC (E. coli (EC); Test 1) | Agar dilution test result (growth), CA (C. albicans (CA); Teat 2 (duplicate)) | Agar dilution test result (growth), CA (C. albicans (CA); Test 1) | Agar dilution test result (growth), SA (S. aureus (SA); Teat 2 (duplicate)) | Agar dilution test result (growth), SA (S. aureus (SA); Test 1) | Agar dilution test result (growth), PA (P. aeruginosa (PA); Teat 2 (duplicate)) | Agar dilution test result (growth), PA (P. aeruginosa (PA); Test 1) | effect on natural skin microbiota on agar plate (FIGS. 1A-1D) [1]
Cc1occc(=O)c1O [ML 0.1%, maltol] | +/− | +/− | + | + | − | − | − | − | − | − | 
Cc1occc(=O)c1O [ML 0.02%, maltol] | + | + | + | + | + | + | + | + | + | + | 
Cc1occc(=O)c1O [ML 0.2%, maltol] | − | − | − | − | − | − | − | − | − | − | 
Cc1occc(=O)c1O [ML 0.04%, maltol] | + | + | + | + | +/− | +/− | +/− | +/− | + | + | 
Cc1occc(=O)c1O [ML 0.05%, maltol] | + | + | + | + | + | + | +/− | +/− | +/− | +/− | 
Cc1occc(=O)c1O [ML 0.08%, maltol] | +/− | +/− | +/− | +/− | − | − | + | + | − | − | 
CCCCC(CC)COCC(O)CO (stereo not shown) [commercial synthetic preservative, ethylhexyl glycerin] |  |  |  |  |  |  |  |  |  |  | almost complete elimination of the microbiota
